Assay results published in patent US20260014278A1, “HYBRID PEPTIDE DENDRIMER SYSTEMS AND EXTRAHEPATIC DELIVERY” (NUNTIUS THERAPEUTICS LIMITED, priority 2022, published 2026).

Test system: macrophage-polarised primary bone marrow derived monocytes
Experiment: eGFP mRNA transfection of macrophage-polarised primary mouse bone marrow derived monocytes, flow cytometry
Type: cell-based
Conditions: GSCG1,2-RHL NP=0.6:1, GSCG1,2-RL, 3-LR NP=0.16:1, GSCG1,RL, 2-LR NP=8:1, DOTMA:DOPE w/w 10:1, lipid-only DOTMA/DOPE w/w 3.2:1, FIG. 2
Protocol: BMDM cells were isolated using the StemCell Tech EasySep Mouse Monocyte Isolation Kit from mouse bone marrow cell suspension. The cells were resuspended in complete medium (DMEM+1% glutamax+10% heat inactivated FBS+1% Pen/Strep) enriched with 50 ng/ml murine M-CSF (1:1000 of 50 μg/ml stock) at 1E+6 cells/mi. 2 million cells (i.e. 2 mL) was seeded in each well of 6-well plate(s). The plate was incubated at 37° C. for 4 days. Half media exchange was performed using complete media enriched with […] murine M-CSF and 40 ng/ml murine IL-4. Cells were then harvested the next day (day 5) by washing cells with PBS and a 10 minute incubation with 5 mM EDTA (diluted in PBS) at 37° C. followed by plate tapping and resuspension. […]
Data were collected using a BD LSRFortessa I analyser running […] software (Beckton Dickinson). All collected data were analysed using FlowJo 10.0 software.
Transfection efficiency of macrophage-polarised primary bone marrow derived monocytes using various peptide dendrimer/lipid nanoparticles was assessed and compared to lipid-only nanoparticles (LPX-RNA). Each nanoparticle, with or without dendrimer, included eGFP mRNA to allow analysis of absolute numbers of cells transfected to be assessed by flow cytometry. […]

(RHL)4(KRHL)2KGSC-NH2 [GSCG1,2-RHL]
transfection efficiency: approximately 35%
